Laboratory results: patent US8796264B2, “2-piperazin-1-yl-4H-1,3-benzothiazin-4-one derivatives and their use for the treatment of mammalian infections” (Ecole Polytechnique Federale de Lausanne (EPFL), priority 2010, dated 2014)
≈ marks a conversion by molar mass, not a printed value.

Columns and labels:
M. tuberculosis H37Rv = assay: In vitro inhibitory activity, resazurin reduction assay (MIC99); format: cell-based, Mycobacterium tuberculosis; details: for MIC used for the selectivity index: strain not stated
[1] = tested on: M. tuberculosis strain H37Rv; assay: In vivo efficacy in the acute murine TB model; set-up: species or system mice; details: for Log of CFU lungs: 4 weeks treatment, intragastric 5 times a week; for Log of CFU lungs / Medium longevity (days) M ± SEM: compounds and BTZ043 50 mg/kg, isoniazid 25 mg/kg; for Result of treatment, macroscopic condition of the lungs: treatment for prescribed time
[2] = tested on: M. tuberculosis strain H37Rv; assay: In vivo efficacy in the chronic murine TB model; set-up: species or system mice
[3] = Intrinsic clearance in liver microsomes; details: 1 μg/mL with 0.1 mg microsomes, HPLC
Protocol: (§1) Next, PBTZ169 and BTZ043 were incubated at a concentration of 1 μg/mL with 0.1 mg of human or mouse liver microsomes (Invitrogen) in order to measure their intrinsic clearance. The relative amounts of the original compound remaining over time were determined by HPLC.

A549 cells = assay: Cytotoxicity TC50, resazurin reduction assay; format: cell-based, human; details: 72 h incubation
Protocol: (§2) The selectivity index (SI) of a compound provides a good indication of the potential tolerability of a drug candidate. […] The TC50 of PBTZ169 and BTZ043 were established using two human cell lines, the hepatocyte line HepG2 and the pneumocyte line A549, using the resazurin reduction assay after incubation with varying amounts of the compounds for 72 h. […] The respective MICs were 1 and 2 ng/ml for PBTZ169 and BTZ043. […] In clinical terms, PBTZ169 should be safer and better tolerated than BTZ043.

HepG2 cells = assay: Cytotoxicity TC50, resazurin reduction assay; format: cell-based, human; details: 72 h incubation
Protocol: as §2

[4] = tested on: NfnB-overproducing mutant MN39; assay: Susceptibility of the NfnB-overproducing mutant MN39; format: cell-based, Mycobacterium smegmatis; details: M. smegmatis NfnB-overproducing mutant
From the text: A second resistance mechanism to BTZ043 has been described in Mycobacterium smegmatis due to overproduction of the nitroreductase NfnB (Manina, G., et al. Mol Microbiol 2010. epub 2010/07/14).

M. smegmatis = assay: In vitro inhibitory activity, resazurin reduction assay (MIC99); format: cell-based, Mycobacterium smegmatis; details: Mycolicibacterium smegmatis, read-out: typical MIC values, M. smegmatis
[5] = Chemical stability in simulated gastric fluid; format: physicochemical; details: 5 μM, after 60 minutes
in vitro = details: human, plasma
Protocol: as §1

[6] = Acute toxicity after administration per os; details: mouse, in vivo, mice
Protocol: The compounds of the invention are non-toxic after administration per os of doses ranging up to 2000 mg/kg. The compound was well tolerated by animals in the first 24 hours after introduction. […] There were no cases of animal death. LD50 for compounds (2) and (18) is >2000 mg/kg.

SMILES	MIC used for the selectivity index (M. tuberculosis H37Rv)	Log of CFU lungs [1]	Medium longevity (days) M ± SEM [1]	Result of treatment, macroscopic condition of the lungs [1]	Efficacy in reducing CFU compared to INH ([2]; INH 25 mg/kg)	Intrinsic Clearance (Clint), Human liver microsomes [3]	Intrinsic Clearance (Clint), Mouse liver microsomes [3]	TC50 against A549 cells (A549 cells)	TC50 against HepG2 cells (HepG2 cells)	Increase in the MIC for MN39 relative to the wild type parental strain [4]	MIC (M. tuberculosis H37Rv; Mycobacterium tuberculosis, H37RV, resazurin reduction assay (MIC99), read-out: typical MIC values, M. tuberculosis H37Rv)	MIC (M. smegmatis)	Reduction of the CFU load in the lungs and spleens compared to treatment with BTZ043 ([2]; 50 mg/kg by gavage once daily, six-times/week, 4 weeks)	Compound remained in simulated gastric fluid [5]	half-life (in vitro)	LD50 at 7 days [6]
C[C@H]1COC2(CCN(c3nc(=O)c4cc(C(F)(F)F)cc([N+](=O)[O-])c4s3)CC2)O1 [BTZ043, 2-[(2S)-2-methyl-1,4-dioxa-8-azaspiro[4.5]dec-8-yl]-8-nitro-6-(trifluoromethyl)-4H-1,3-benzothia-zin-4-one, reference compound]	2 ng/mL	4.78	Alive at sacrifice	marked improvement	slightly inferior to INH	16.2 μL/min/mg of protein	10.3 μL/min/mg of protein	16.3 µg/mL (≈ 37.8 µM)	6.3 µg/mL (≈ 14.6 µM)	6 fold	–	–	–	–	–	–
O=c1nc(N2CCN(CC3CCCCC3)CC2)sc2c([N+](=O)[O-])cc(C(F)(F)F)cc12 [Compound 2, 2-[4-(cyclohexylmethyl)piperazin-1-yl]-8-nitro-6-(trifluoromethyl)-4H-1,3-benzothiazin-4-one]	1 ng/mL	4.30	Alive at sacrifice	marked improvement	–	23.9 μL/min/mg of protein	20.9 μL/min/mg of protein	73.2 µg/mL (≈ 160 µM)	66.7 µg/mL (≈ 146 µM)	–	≤ 0.19 ng/mL	≤ 0.17 µg/mL	significantly more efficacious	67%	> 60 min	> 2000 mg/kg
